From US20090215710A1, “CARBOHYDRATE BASED TOLL-LIKE RECEPTOR (TLR) ANTAGONISTS” (RELIANCE LIFE SCIENCES PVT. LTD., priority 2007, published 2009) come the findings set out here.

The subject of data set [1] is TNF. Description: Pre-screen for TNF inhibition activity of synthesized molecules (Table 1). The class given is cell-based.
Data set [2] is described as follows: Cell viability in pre-screen (Table 1). The class given is cell-based.

Regarding “p-Methoxy phenyl-2-deoxy-2-trichloroacetamido-4,6-O-benzylidene-β-D-glucopyranosyl)-(1-4)-O-(2,3-di-O-acetyl-6-O-levulinoyl-β-D-glucopyranoside [RSCL-0635]”, the “% TNF Inhibition” value in data set [1] (1 uM), in data set [1] (10 uM), in data set [1] (50 uM) and in data set [1] (100 uM) was 0% in each case. For the same substance, the “% Viability” value in data set [2] (1 uM) stood at 97%; in data set [2] (10 uM), 89%; in data set [2] (50 uM), 82%; in data set [2] (100 uM), 81%.
